Measurements: patent publication US8598204B2, “1,2-dihydro-2-oxoquinoline compounds as 5-HT4 receptor ligands” (Suven Life Sciences Limited, priority 2009, dated 2013)

Assays:
[1] = Rodent brain penetration study; type: in vivo; conditions: Wistar, rat; Wister/Male rats, 10 mg/kg, Oral, vehicle Water; brain/plasma; read-out: Steady State Brain Penetration (Cb/Cp)
Experimental: Male Wister rats (230-280 grams) obtained from NIN (National Institute of Nutrition, Hyderabad, India) was used as an experimental animal. Three animals were housed in each cage. Animals were given water and food ad libitum throughout the experiment, and maintained on a 12 hours light/dark cycle.
Brain penetration was determined in discrete manner in rats. One day prior to dosing day, male wistar rats (225-250 grams) were acclimatized. After acclimatization the rats were grouped according to the weight in each group, 3 animals were kept in individual cage and allowed free access to food and water. At each time point (0.5, 1, and 2 hours) n=3 animals were used.
NCE compound was dissolved in water and administered orally at (free base) 10 mg/kg. Blood samples were removed via, cardiac puncture by using isofurane anesthesia the animals were sacrificed to collect brain tissue. Plasma was separated and Brain samples were homogenized and stored frozen at −20° C. until analysis. The concentrations of the NCE compound in plasma and Brain were determined using LC-MS/MS method.
The NCE compounds were quantified in plasma and brain homogenate by validated LC-MS/MS method using solid phase extraction technique. NCE compounds were quantified in the calibration range of 1-500 ng/mL in plasma and brain homogenate. Study samples were analyzed using calibration samples in the batch and quality control samples spread across the batch. Extents of brain-blood ratio were calculated (Cb/Cp).

[2] = biological target: T1, recombinant human 5-HT4 receptor (Homo sapiens, UniProt Q13639); assay: Determination of EC50 values for 5-HT4 receptor (CRE-luciferase reporter, CHO cells); type: cell-based; conditions: stable CHO cell line expressing recombinant human 5-HT4 receptor and pCRE-Luc reporter; 4 hours incubation; luciferase activity
T1 construct: expressed in transfected cells
T1 sequence (Q13639 whole entry): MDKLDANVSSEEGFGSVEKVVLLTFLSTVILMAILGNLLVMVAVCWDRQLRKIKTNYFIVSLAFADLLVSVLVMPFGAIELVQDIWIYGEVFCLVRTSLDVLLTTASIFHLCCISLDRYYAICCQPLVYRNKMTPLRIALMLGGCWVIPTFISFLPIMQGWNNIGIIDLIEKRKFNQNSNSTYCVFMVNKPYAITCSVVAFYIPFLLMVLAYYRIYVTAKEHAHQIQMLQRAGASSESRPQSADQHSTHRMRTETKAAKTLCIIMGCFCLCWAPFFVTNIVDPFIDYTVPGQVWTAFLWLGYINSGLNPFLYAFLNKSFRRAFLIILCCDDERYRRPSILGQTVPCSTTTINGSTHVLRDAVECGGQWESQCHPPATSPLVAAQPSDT
Experimental: A stable CHO cell line expressing recombinant human 5-HT4 receptor and pCRE-Luc reporter system was used for cell-based assay. The assay offers a non-radioactive based approach to determine binding of a compound to GPCRs. In this specific assay, the level of intracellular cyclic AMP which is modulated by activation or inhibition of the receptor is measured. The recombinant cells harbor luciferase reporter gene under the control of cAMP response element.
The above cells were grown in 96 well clear bottom white plates in Hams F12 medium containing 10% fetal bovine serum (FBS). Prior to the addition of compounds or standard agonist, cells were serum starved overnight. Increasing concentrations of test compounds were added in OptiMEM medium to the cells. The incubation was continued at 37° C. in CO2 incubator for 4 hours. Medium was removed and cells were washed with phosphate buffered saline. The cells were lysed and luciferase activity was measured in a Luminometer. Luminescence units were plotted against the compound concentrations using Graphpad software. EC50 values of the compounds were defined as the concentration required in stimulating the luciferase activity by 50%.

[3] = Rodent pharmacokinetic study; type: in vivo; conditions: Wistar, rat, plasma, Wister/Male rats, 5 mg/kg; for bioavailability: Oral versus Intravenous; for AUC(0-t) / Cmax / Tmax / half-life: vehicle Water
Experimental: Male Wister rats (230-280 grams) obtained from NIN (National Institute of Nutrition, Hyderabad, India) was used as an experimental animal. Three to five animals were housed in each cage. One day prior to dosing day, male wistar rats (225-250 grams) were anesthetized with isoflurane for surgical placement of jugular vein catheter. Animals were kept fasted over night and maintained on a 12 hours light/dark cycle. Three rats were dosed NCE (5 mg/Kg) orally and intravenously on day 0 and day 2.
At each time point blood was collected by jugular vein. Plasma was stored frozen at −20° C. until analysis. The concentrations of the NCE compound in plasma were determined using LC-MS/MS method. Schedule time points: Pre dose 0.25, 0.5, 1, 1.5, 2, 3, 4, 6, 8, 10, 12 and 24 hours after dosing (n=3). The NCE compounds were quantified in plasma by validated LC-MS/MS method using solid phase extraction technique. NCE compounds were quantified in the calibration range of 2-2000 ng/mL in plasma. Study samples were analyzed using calibration samples in the batch and quality control samples spread across the batch.
Pharmacokinetic parameters Cmax, Tmax, AUCt, T1/2 and Bioavailability were calculated by non-compartmental model using software WinNonlin version 5.0.1.

[4] = test system: novel object recognition (cognition) in rats; assay: Object recognition task model; type: in vivo, rat; conditions: 10 mg/kg p.o.; for Exploration time mean ± S.E.M, Familiar object / Exploration time mean ± S.E.M, Novel object: choice trial T2 24 hours after T1
Experimental: The cognition-enhancing properties of compounds of this invention were estimated using a model of animal cognition: the object recognition task model.
Male Wister rats (230-280 grams) obtained from N. I. N. (National Institute of Nutrition, Hyderabad, India) was used as experimental animals. Four animals were housed in each cage. Animals were kept on 20% food deprivation before one day and given water ad libitum throughout the experiment and maintained on a 12 hours light/dark cycle. Also the rats were habituated to individual arenas for 1 hour in the absence of any objects.
One group of 12 rats received vehicle (1 mL/Kg) orally and another set of animals received compound of the formula (I) either orally or i.p., before one hour of the familiar (T1) and choice trial (T2).
The experiment was carried out in a 50×50×50 cm open field made up of acrylic. In the familiarization phase (T1), the rats were placed individually in the open field for 3 minutes, in which two identical objects (plastic bottles, 12.5 cm height×5.5 cm diameter) covered in yellow masking tape alone (a1 and a2) were positioned in two adjacent corners, 10 cm. from the walls. After 24 hours of the (T1) trial for long-term memory test, the same rats were placed in the same arena as they were placed in (T1) trial. Choice phase (T2) rats were allowed to explore the open field for 3 minutes in presence of one familiar object (a3) and one novel object (b) (Amber color glass bottle, 12 cm high and 5 cm in diameter). Familiar objects presented similar textures, colors and sizes. During the T1 and T2 trial, explorations of each object (defined as sniffing, licking, chewing or having moving vibrissae whilst directing the nose towards the object at a distance of less than 1 cm) were recorded separately by stopwatch. Sitting on an object was not regarded as exploratory activity, however, it was rarely observed.
T1 is the total time spent exploring the familiar objects (a 1+a2).
T2 is the total time spent exploring the familiar object and novel object (a3+b).
The object recognition test was performed as described by Ennaceur, A., Delacour, J., 1988, A new one-trial test for neurobiological studies of memory in rats—Behavioural data, Behav. Brain Res., 31, 47-59.

Kp [1] | EC50 [2] [nM] | bioavailability [3] [%] | AUC(0-t) ([3]; Intravenous) [ng·h/mL] | Cmax ([3]; Intravenous) [ng/mL] | Tmax ([3]; Intravenous) [h] | half-life ([3]; Intravenous) [h] | AUC(0-t) ([3]; Oral) [ng·h/mL] | Cmax ([3]; Oral) [ng/mL] | Tmax ([3]; Oral) [h] | half-life ([3]; Oral) [h] | SMILES | Inference [4] | Exploration time mean ± S.E.M, Familiar object [4] [s] | Exploration time mean ± S.E.M, Novel object [4] [s]
2.97 ± 0.94 | 307 | 28 ± 3 | 820 ± 247 | 523 ± 57 | 0.08 | 3.31 ± 1.47 | 223 ± 50 | 67 ± 17 | 0.42 ± 0.14 | 1.67 ± 0.27 | CC(C)n1c(=O)c(C(=O)NC23CC4CC(C2)N(C)C(C4)C3)c(O)c2ccccc21 [Example 14, N-(2-Methyl-2-azatricyclo[3.3.1.1^3,7]dec-5-yl)-4-hydroxy-1-isopropyl-2-oxo-1,2-dihydro-quinoline-3-carboxamide] | – | – | –
0.2 ± 0.04 | 230 | 26 ± 11 | 3020 ± 980 | 1170 ± 241 | 0.08 | 1.88 ± 1.15 | 801 ± 105 | 211 ± 32 | 0.83 ± 0.29 | 2.37 ± 0.6 | CC(C)n1c(=O)c(C(=O)NCCCN2C3CC4CC(C3)CC2C4)c(O)c2ccccc21.Cl [Example 1, N-[(2-Azatricyclo[3.3.1.1^3,7]dec-2-yl)propyl]-4-hydroxy-1-isopropyl-2-oxo-1,2-dihydroquinoline-3-carboxamide hydrochloride] | Active | 7.87 ± 0.83 | 12.56 ± 1.31

SMILES | Kp [1] | EC50 [2] [nM] | bioavailability [3] [%] | AUC(0-t) ([3]; Intravenous) [ng·h/mL] | Cmax ([3]; Intravenous) [ng/mL] | Tmax ([3]; Intravenous) [h] | half-life ([3]; Intravenous) [h] | AUC(0-t) ([3]; Oral) [ng·h/mL] | Cmax ([3]; Oral) [ng/mL] | Tmax ([3]; Oral) [h] | half-life ([3]; Oral) [h] | Inference [4] | Exploration time mean ± S.E.M, Familiar object [4] [s] | Exploration time mean ± S.E.M, Novel object [4] [s]
CC(C)n1c(=O)c(C(=O)NCCCN2C3CC4CC2CC(O)(C4)C3)c(O)c2ccccc21 [Example 4, N-[(5-Hydroxy-2-azatricyclo[3.3.1.1^3,7]dec-2-yl)propyl]-4-hydroxy-1-isopropyl-2-oxo-1,2-dihydroquinoline-3-carboxamide] | 0.66 ± 0.1 | 421 | 34 ± 6 | 1660 ± 498 | 803 ± 62 | 0.08 | 2.64 ± 0.89 | 547 ± 126 | 216 ± 78 | 0.33 | 1.8 ± 0.36 | Active | 6.72 ± 1.92 | 11.86 ± 1.65
